Reference: ChEMBL document CHEMBL2424658, “Design, synthesis, and evaluation of novel 1-methyl-3-substituted quinazoline-2,4-dione derivatives as antimicrobial agents” (2013)
Converted amounts (≈) assume the structure as drawn.

Tests used:
Assay type in all cases: functional
[1] = tested on: Bacillus; assay: Antibacterial activity against Bacillus proteus after overnight incubation by […] method
[2] = tested on: Pseudomonas aeruginosa; assay: Antibacterial activity against Pseudomonas aeruginosa CR 56 after overnight incubation by […] method
[3] = tested on: Staphylococcus aureus; assay: Antibacterial activity against methicillin-resistant Staphylococcus aureus N315 after overnight incubation by […] method
[4] = tested on: Cryptococcus neoformans; assay: Antifungal activity against Cryptococcus neoformans after overnight incubation by […] method
[5] = tested on: Escherichia coli; assay: Antibacterial activity against Escherichia coli JM 109 after overnight incubation by […] method
[6] = tested on: Staphylococcus aureus; assay: Antibacterial activity against Staphylococcus aureus ATCC 25923 after overnight incubation by […] method
[7] = tested on: Candida albicans; assay: Antifungal activity against Candida albicans ATCC 76615 after overnight incubation by […] method
[8] = tested on: Bacillus subtilis; assay: Antibacterial activity against Bacillus subtilis ATCC 6633 after overnight incubation by […] method
[9] = tested on: Candida; assay: Antifungal activity against Candida mycoderma after overnight incubation by […] method
[10] = tested on: Aspergillus flavus; assay: Antifungal activity against Aspergillus flavus 3905 after overnight incubation by […] method
[11] = tested on: Saccharomyces cerevisiae; assay: Antifungal activity against Saccharomyces cerevisiae CGMCC2.145 after overnight incubation by […] method

Row | Structure (SMILES) | MIC [1] [µg/mL] | MIC [2] [µg/mL] | MIC [3] [µg/mL] | MIC [4] [µg/mL] | MIC [5] [µg/mL] | MIC [6] [µg/mL] | MIC [7] [µg/mL] | MIC [8] [µg/mL] | MIC [9] [µg/mL] | MIC [10] [µg/mL] | MIC [11] [µg/mL]
1 | Cn1c(=O)n(CCOC(=O)CNC(=O)c2cccc(F)c2)c(=O)c2ccccc21 | 512 (≈ 1280 µM) | 128 (≈ 320 µM) | 32 (≈ 80.1 µM) | 256 (≈ 641 µM) | 128 (≈ 320 µM) | 128 (≈ 320 µM) | 16 (≈ 40.1 µM) | 256 (≈ 641 µM) | 512 (≈ 1280 µM) | 64 (≈ 160 µM) | 
2 | Cn1c(=O)n(CCOC(=O)CNC(=O)c2ccc(F)cc2)c(=O)c2ccccc21 | 512 (≈ 1280 µM) | 256 (≈ 641 µM) | 4 (≈ 10 µM) | 16 (≈ 40.1 µM) | 64 (≈ 160 µM) | 256 (≈ 641 µM) | 32 (≈ 80.1 µM) | 128 (≈ 320 µM) | 64 (≈ 160 µM) | 64 (≈ 160 µM) | 
3 | Cn1c(=O)n(CCOC(=O)CNC(=O)c2ccccc2Cl)c(=O)c2ccccc21 | 128 (≈ 308 µM) | 128 (≈ 308 µM) | > 512 | 128 (≈ 308 µM) | 512 (≈ 1230 µM) | 512 (≈ 1230 µM) | 32 (≈ 77 µM) | 64 (≈ 154 µM) | 64 (≈ 154 µM) | 128 (≈ 308 µM) | 
4 | Cc1ccccc1C(=O)NCC(=O)OCCn1c(=O)c2ccccc2n(C)c1=O | 32 (≈ 80.9 µM) | 256 (≈ 647 µM) | 32 (≈ 80.9 µM) | 16 (≈ 40.5 µM) | 32 (≈ 80.9 µM) | 512 (≈ 1290 µM) | 512 (≈ 1290 µM) | 64 (≈ 162 µM) | 512 (≈ 1290 µM) | 128 (≈ 324 µM) | 
5 | Cn1c(=O)n(CCOC(=O)CNC(=O)c2ccc([N+](=O)[O-])cc2)c(=O)c2ccccc21 | 128 (≈ 300 µM) | 64 (≈ 150 µM) | 8 (≈ 18.8 µM) |  | 128 (≈ 300 µM) | 256 (≈ 600 µM) | 512 (≈ 1200 µM) | 512 (≈ 1200 µM) | 64 (≈ 150 µM) |  | 
6 | COc1ccc(C(=O)NCC(=O)OCCn2c(=O)c3ccccc3n(C)c2=O)cc1 | 512 (≈ 1240 µM) | 128 (≈ 311 µM) | 256 (≈ 622 µM) | 32 (≈ 77.8 µM) | 512 (≈ 1240 µM) | 512 (≈ 1240 µM) | 32 (≈ 77.8 µM) | 4 (≈ 9.72 µM) | 512 (≈ 1240 µM) | 128 (≈ 311 µM) | 
7 | Cc1ccc(C(=O)NCC(=O)OCCn2c(=O)c3ccccc3n(C)c2=O)cc1 | 32 (≈ 80.9 µM) | 128 (≈ 324 µM) | 512 (≈ 1290 µM) | 16 (≈ 40.5 µM) | 512 (≈ 1290 µM) | 512 (≈ 1290 µM) | 32 (≈ 80.9 µM) | 64 (≈ 162 µM) | 512 (≈ 1290 µM) | 64 (≈ 162 µM) | 
8 | Cn1c(=O)n(CCOC(=O)CNC(=O)c2cccc([N+](=O)[O-])c2)c(=O)c2ccccc21 | 128 (≈ 300 µM) | 512 (≈ 1200 µM) | 4 (≈ 9.38 µM) | 128 (≈ 300 µM) | 16 (≈ 37.5 µM) | 128 (≈ 300 µM) | 64 (≈ 150 µM) | 256 (≈ 600 µM) | 16 (≈ 37.5 µM) | 64 (≈ 150 µM) | 
9 | Cn1c(=O)n(CCOC(=O)CNC(=O)c2ccc(Cl)cc2)c(=O)c2ccccc21 | 256 (≈ 616 µM) | 256 (≈ 616 µM) | 512 (≈ 1230 µM) | 32 (≈ 77 µM) | 256 (≈ 616 µM) | 128 (≈ 308 µM) | 64 (≈ 154 µM) | 128 (≈ 308 µM) | 512 (≈ 1230 µM) | 32 (≈ 77 µM) | 
10 | Cn1c(=O)n(CCOC(=O)CNC(=O)c2ccco2)c(=O)c2ccccc21 | 128 (≈ 345 µM) | 128 (≈ 345 µM) | > 512 | 128 (≈ 345 µM) | 4 (≈ 10.8 µM) | 256 (≈ 689 µM) | 32 (≈ 86.2 µM) | 4 (≈ 10.8 µM) | 64 (≈ 172 µM) | 64 (≈ 172 µM) | 
11 | Cn1c(=O)n(CCOC(=O)CNC(=O)c2cccs2)c(=O)c2ccccc21 | 64 (≈ 165 µM) | 64 (≈ 165 µM) | 32 (≈ 82.6 µM) | 256 (≈ 661 µM) | 64 (≈ 165 µM) | 512 (≈ 1320 µM) | 512 (≈ 1320 µM) | 32 (≈ 82.6 µM) | 512 (≈ 1320 µM) | 64 (≈ 165 µM) | 
12 | Cn1c(=O)n(CCOC(=O)CNC(=O)/C=C\c2ccccc2)c(=O)c2ccccc21 | 256 (≈ 628 µM) | > 512 | 4 (≈ 9.82 µM) | 8 (≈ 19.6 µM) | 16 (≈ 39.3 µM) | 128 (≈ 314 µM) | 512 (≈ 1260 µM) | 4 (≈ 9.82 µM) | 512 (≈ 1260 µM) | 32 (≈ 78.5 µM) | 
13 | NC(=O)OC[C@H](O)[C@@H](O)[C@H](N)C(=O)N[C@H](C(=O)O)[C@H]1O[C@@H](n2cc(C(=O)O)c(=O)[nH]c2=O)[C@H](O)[C@@H]1O |  |  |  | 0.0312 (≈ 0.0599 µM) |  |  | 32 (≈ 61.4 µM) |  | 8 (≈ 15.3 µM) | 32 (≈ 61.4 µM) | 16 (≈ 30.7 µM)
14 | Cn1c(=O)n(CCOC(=O)CNC(=O)c2ccccc2)c(=O)c2ccccc21 | > 512 | > 512 | > 512 | 32 (≈ 83.9 µM) | 128 (≈ 336 µM) | 256 (≈ 671 µM) | 512 (≈ 1340 µM) | 512 (≈ 1340 µM) | > 512 | 64 (≈ 168 µM) | 
15 | OC(Cn1cncn1)(Cn1cncn1)c1ccc(F)cc1F [FLUCONAZOLE] |  |  |  | 0.0312 (≈ 0.102 µM) |  |  | 16 (≈ 52.2 µM) |  | 8 (≈ 26.1 µM) | 64 (≈ 209 µM) | > 512
16 | CN[C@@H]1[C@H](O[C@H]2[C@H](O[C@H]3[C@H](O)[C@@H](O)[C@H](N=C(N)N)[C@@H](O)[C@@H]3N=C(N)N)O[C@@H](C)[C@]2(O)C=O)O[C@@H](CO)[C@H](O)[C@H]1O [STREPTOMYCIN] | 16 (≈ 27.5 µM) | 64 (≈ 110 µM) | > 512 |  | 64 (≈ 110 µM) | 32 (≈ 55 µM) |  | 32 (≈ 55 µM) |  |  | 
